For 17 compounds, IC50 and concentration results are on record in patent US9150566B2, “2-(1,2,3-triazol-2-yl)benzamide and 3-(1,2,3-triazol-2-YL)picolinamide derivatives as orexin receptor antagonists” (ACTELION PHARMACEUTICALS LTD., priority 2011, dated 2015).

Like-named read-outs stand apart in the source and are kept apart here.

Data set [1] concerns the target human orexin-1 receptor (Homo sapiens (Human), UniProt O43613). The data set is described as follows: In vitro intracellular calcium measurements (FLIPR), antagonistic activity on orexin-1 receptor. Type of data set: cell-based. The conditions noted are these: read-out: IC50 OX1. Put shortly: (§1)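 CHO cells expressing human orexin-1 or orexin-2 receptor were seeded overnight, preincubated with antagonist for 120 min, then stimulated with agonist in a FLIPR Tetra.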
(In general: Calcium assays in cells follow changes in intracellular calcium, usually with a dye or a luminescent sensor.)

For data set [2], the target named is human orexin-2 receptor (Homo sapiens (Human), UniProt O43614). The data set is described as follows: In vitro intracellular calcium measurements (FLIPR), antagonistic activity on orexin-2 receptor. The note with it: read-out: IC50 OX2. Type of data set: cell-based. In outline: as §1
Chain of human orexin-2 receptor (O43614 whole entry): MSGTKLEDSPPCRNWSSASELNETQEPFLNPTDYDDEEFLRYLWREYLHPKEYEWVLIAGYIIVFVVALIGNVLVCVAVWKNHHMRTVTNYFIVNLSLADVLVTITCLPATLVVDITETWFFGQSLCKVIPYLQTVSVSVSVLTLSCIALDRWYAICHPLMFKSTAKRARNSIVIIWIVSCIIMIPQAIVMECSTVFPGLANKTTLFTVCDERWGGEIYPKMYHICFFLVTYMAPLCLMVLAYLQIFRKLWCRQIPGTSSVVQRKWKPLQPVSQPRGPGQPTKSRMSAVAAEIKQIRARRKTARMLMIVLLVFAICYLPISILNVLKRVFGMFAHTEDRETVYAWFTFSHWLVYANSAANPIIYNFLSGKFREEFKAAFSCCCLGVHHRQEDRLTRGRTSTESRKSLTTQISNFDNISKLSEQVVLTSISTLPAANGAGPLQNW
A short description of data set [3]: Measurement of brain and systemic concentration after oral administration. The conditions noted are these: rat, brain, male wistar rats, oral 100 mg/kg, read-out: brain concentration [B]; for concentration at 1 h: formulated in 10% PEG400/90% MC0.5%, sampled at 1 h; for concentration at 3 h: formulated in 100% PEG400, sampled at 3 h. Type of data set: in vivo. As for the experimental part: Measurement of Brain and Systemic Concentration after Oral Administration:
In order to assess brain penetration, the concentration of the compound is measured in plasma ([P]), and brain ([B]), sampled 1 h or 3 h (or at different time points) following oral administration (100 mg/kg) to male wistar rats (n=3). The compounds are formulated either in 100% PEG 400 or 10% PEG400/90% MC0.5%. Samples are collected in the same animal at the same time point (+/−5 min). Blood is sampled from the vena cava caudalis into containers with EDTA as anticoagulant and centrifuged to yield plasma. Brain is sampled after cardiac perfusion of 10 mL NaCl 0.9% and homogenized into one volume of cold phosphate buffer (pH 7.4). All samples are extracted with MeOH and analyzed by LC-MS/MS. Concentrations are determined with the help of calibration curves. Inter-individual variations between the three rats were limited. Particular compounds of the present invention tested as described above gave brain concentrations ([B]) as shown in Table 16 below; wherein the compounds of Examples 11-37 and 94 were formulated in 100% PEG400 and sampled at 3 h. All other examples below were formulated in 10% PEG400/90% MC0.5% and sampled at 1 h.

The target in data set [4] is CYP3A4 (Homo sapiens (Human), UniProt P08684). The data set is described as follows: CYP3A4 inhibition assay (human liver microsomes, testosterone 6β-hydroxylation). The conditions noted are these: read-out: CYP3A4 IC50, 40 μM testosterone. (Liver microsomes are a subcellular fraction often used to study metabolism.)
Chain of CYP3A4 (P08684 whole entry): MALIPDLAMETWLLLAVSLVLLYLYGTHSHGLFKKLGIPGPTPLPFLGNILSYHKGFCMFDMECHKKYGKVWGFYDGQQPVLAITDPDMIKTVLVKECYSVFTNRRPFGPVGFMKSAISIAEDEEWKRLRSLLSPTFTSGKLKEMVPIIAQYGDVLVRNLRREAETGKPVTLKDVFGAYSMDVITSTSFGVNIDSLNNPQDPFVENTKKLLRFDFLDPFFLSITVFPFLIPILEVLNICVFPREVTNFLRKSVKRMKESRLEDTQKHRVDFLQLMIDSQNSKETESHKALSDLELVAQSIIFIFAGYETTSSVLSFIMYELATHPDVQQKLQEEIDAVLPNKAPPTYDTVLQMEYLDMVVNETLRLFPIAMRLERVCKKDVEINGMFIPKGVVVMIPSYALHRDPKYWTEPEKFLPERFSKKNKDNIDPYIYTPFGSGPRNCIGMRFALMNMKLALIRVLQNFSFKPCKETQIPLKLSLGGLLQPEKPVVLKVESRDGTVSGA
Procedure: The CYP3A4 inhibition assay was performed using human liver microsomes and testosterone 6β-hydroxylation as a P450 isoform-specific marker. In a total volume of 150 μL, ^14C-testosterone at a final concentration of 40 μM in a 100 mM phosphate buffer (pH 7.4) was incubated in a 96-well plate with 0.3 mg/mL of human liver microsomes in an Eppendorf thermomixer at 37° C. and 400 rpm. […] The reaction was initiated by addition of 15 μL of the NADPH-regenerating system containing the glucose-6-phosphate dehydrogenase and terminated after 7 min with a 75 μL-aliquot of methanol. After centrifugation at 465 g and 4° C. for 20 min, a 50 μL-aliquot of the supernatant was submitted to HPLC according to the method described below. The total concentration of DMSO in the assay including controls without inhibitor was 1%.
Nicardipine was run in parallel as a reference inhibitor of CYP3A4 activity at final concentrations of 0, 0.1, 0.5, 1.0, 5.0, 10, 25, and 50 μM. Stock solutions thereof were prepared in DMSO.
The chromatographic separation of testosterone and 6β-hydroxytestosterone was achieved on a Phenomenex Luna C18(2) column (5 μm, 2.0×10 mm) at RT with a flow rate of 0.6 mL/min. Mobile phases consisted of 1% aqueous formic acid (phase A) and methanol (phase B) using a gradient method with 0.9 min total run time.
The quantification of 6β-hydroxytestosterone was carried out using a quadrupole mass spectrometer equipped with an ionspray interface operating in positive ion mode. The parameters of the mass detector were set as follows: capillary voltage 5 kV, auxiliary gas 40 psi, collision gas 3 mTorr, and transfer capillary temperature 420° C.
Setting [5] is: CHO cells expressing human orexin-1 receptor, FLIPR, 3 nM orexin-A agonist, 120 min antagonist incubation, geometric mean if determined several times.
Setting [6] is: CHO cells expressing human orexin-2 receptor, FLIPR, 3 nM orexin-A agonist, 120 min antagonist incubation, geometric mean if determined several times.

Chain of human orexin-1 receptor (O43613 whole entry): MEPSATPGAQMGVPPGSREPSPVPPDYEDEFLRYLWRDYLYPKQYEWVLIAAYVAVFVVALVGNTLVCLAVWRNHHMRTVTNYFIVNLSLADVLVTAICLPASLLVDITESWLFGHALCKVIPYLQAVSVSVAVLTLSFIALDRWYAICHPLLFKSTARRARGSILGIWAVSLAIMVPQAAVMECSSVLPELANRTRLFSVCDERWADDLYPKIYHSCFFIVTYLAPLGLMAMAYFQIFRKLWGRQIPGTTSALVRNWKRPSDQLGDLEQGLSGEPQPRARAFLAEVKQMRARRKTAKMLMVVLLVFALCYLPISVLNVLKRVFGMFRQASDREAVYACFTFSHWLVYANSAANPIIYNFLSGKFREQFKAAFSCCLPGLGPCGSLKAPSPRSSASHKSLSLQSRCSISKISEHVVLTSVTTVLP

In the case of `Cc1ccc(C(=O)N2CCOC[C@H]2Cc2cccc(-n3nccn3)c2)c(-n2nccn2)c1C` [Example 92, (3,4-Dimethyl-2-[1,2,3]triazol-2-yl-phenyl)-[(R)-3-(3-[1,2,3]triazol-2-yl-benzyl)-morpholin-4-yl]-methanone], the IC50 – broadly, the concentration needed to halve the response being measured – in data set [1] amounted to 3 nM; in data set [2] it was 2630 nM; in data set [4], 44000 nM. Also, the concentration at 1 h in data set [3] is 1970 ng/g.

For `O=C(c1ccc(Cl)cc1-n1nccn1)N1CCOC[C@H]1Cc1cc(-n2nccn2)ccc1F` [Example 130, (4-Chloro-2-[1,2,3]triazol-2-yl-phenyl)-[(R)-3-(2-fluoro-5-[1,2,3]triazol-2-yl-benzyl)-morpholin-4-yl]-methanone], the 50% inhibitory concentration (IC50) worked out at 3 nM in data set [1] (setting [5]), 191 nM in data set [2] (setting [6]) and 20000 nM in data set [4]. Further, the concentration at 1 h in data set [3] came out at 5830 ng/g.

On to `O=C(c1ccccc1-n1nccn1)N1CCOC[C@H]1Cc1cccc(-n2cccn2)c1` [Example 16, [(R)-3-(3-Pyrazol-1-yl-benzyl)-morpholin-4-yl]-(2-[1,2,3]triazol-2-yl-phenyl)-methanone], for which the IC50 in data set [1] (setting [5]) amounted to 30 nM; in data set [2] (setting [6]), 1820 nM; in data set [4] it was 43000 nM. Besides, the concentration at 3 h in data set [3] came out at 160 ng/g.

For the compound `Cc1ccc(-n2nccn2)c(C(=O)N2CCOC[C@H]2Cc2cccc(-n3cccn3)c2)c1F` [Example 21, (2-Fluoro-3-methyl-6-[1,2,3]triazol-2-yl-phenyl)-[(R)-3-(3-pyrazol-1-yl-benzyl)-morpholin-4-yl]-methanone], the IC50 was 2 nM in data set [1] (setting [5]), 1650 nM in data set [2] (setting [6]) and 20000 nM in data set [4]. In addition, in data set [3], the concentration at 3 h is 36 ng/g.

Take `Cc1ccc(C(=O)N2CCOC[C@H]2Cc2cc(-n3nccn3)ccc2F)c(-n2nccn2)c1` [Example 62, [(R)-3-(2-Fluoro-5-[1,2,3]triazol-2-yl-benzyl)-morpholin-4-yl]-(4-methyl-2-[1,2,3]triazol-2-yl-phenyl)-methanone]: the half-inhibitory concentration (IC50) in data set [2] (setting [6]) came to 404 nM; in data set [4] it was 29000 nM. The concentration at 1 h in data set [3] was found to be 4420 ng/g.

Consider `Cc1ccc(C(=O)N2CCOC[C@H]2Cc2cc(-n3nccn3)ccc2F)c(-n2nccn2)c1C` [Example 94, (3,4-Dimethyl-2-[1,2,3]triazol-2-yl-phenyl)-[(R)-3-(2-fluoro-5-[1,2,3]triazol-2-yl-benzyl)-morpholin-4-yl]-methanone], for which the 50% inhibitory concentration (IC50) in data set [1] (setting [5]) came out at 6 nM; in data set [2] (setting [6]), 3580 nM; in data set [4], 30000 nM. For the same compound, in data set [3], the concentration at 3 h was 654 ng/g.

Turning to `C[C@@H]1CN(C(=O)c2ccccc2-n2nccn2)[C@H](Cc2cc(-n3nccn3)ccc2F)CO1` [Example 116, [(2R,5R)-5-(2-Fluoro-5-[1,2,3]triazol-2-yl-benzyl)-2-methyl-morpholin-4-yl]-(2-[1,2,3]triazol-2-yl-phenyl)-methanone], the values for the IC50 in data set [1] (setting [5]), in data set [2] (setting [6]) and in data set [4] were 21 nM, 899 nM and 21000 nM, respectively. Moreover, the concentration at 1 h in data set [3] was 5930 ng/g.

For the compound `C[C@@H]1CN(C(=O)c2ccccc2-n2nccn2)[C@H](Cc2cccc(-n3nccn3)c2)CO1` [Example 100, [(2R,5R)-2-Methyl-5-(3-[1,2,3]triazol-2-yl-benzyl)-morpholin-4-yl]-(2-[1,2,3]triazol-2-yl-phenyl)-methanone], the half-inhibitory concentration (IC50) in data set [1] (setting [5]) was determined as 6 nM; in data set [2] (setting [6]) it was 289 nM; in data set [4], 13000 nM. In addition, in data set [3], the concentration at 1 h amounted to 529 ng/g.

On to `Cc1ccc(-n2nccn2)c(C(=O)N2CCOC[C@H]2Cc2cccc(-n3nccn3)c2)c1F` [Example 29, (2-Fluoro-3-methyl-6-[1,2,3]triazol-2-yl-phenyl)-[(R)-3-(3-[1,2,3]triazol-2-yl-benzyl)-morpholin-4-yl]-methanone], for which the figures for the IC50 in data set [1] (setting [5]), in data set [2] (setting [6]) and in data set [4] were 4 nM, 333 nM and 39000 nM, respectively. Further, the concentration at 3 h in data set [3] was 423 ng/g.

`O=C(c1cc(Cl)ccc1-n1nccn1)N1CCOC[C@H]1Cc1cccc(-n2nccn2)c1` [Example 30, (5-Chloro-2-[1,2,3]triazol-2-yl-phenyl)-[(R)-3-(3-[1,2,3]triazol-2-yl-benzyl)-morpholin-4-yl]-methanone]: the IC50 was found to be 4 nM in data set [1] (setting [5]), 199 nM in data set [2] (setting [6]) and 17000 nM in data set [4]. In addition, in data set [3], the concentration at 3 h is 1870 ng/g.

Take `O=C(c1ccc(C(F)(F)F)cc1-n1nccn1)N1CCOC[C@H]1Cc1cccc(-n2nccn2)c1` [Example 76, [(R)-3-(3-[1,2,3]Triazol-2-yl-benzyl)-morpholin-4-yl]-(2-[1,2,3]triazol-2-yl-4-trifluoromethyl-phenyl)-methanone]: the half-maximal inhibitory concentration (IC50) turned out to be 2 nM in data set [1] (setting [5]), 133 nM in data set [2] (setting [6]) and 7500 nM in data set [4]. The concentration at 1 h in data set [3] stood at 1380 ng/g.

Take `Cc1ccc(C(=O)N2CCOC[C@H]2Cc2cccc(-n3nccn3)c2)c(-n2nccn2)c1` [Example 27, (4-Methyl-2-[1,2,3]triazol-2-yl-phenyl)-[(R)-3-(3-[1,2,3]triazol-2-yl-benzyl)-morpholin-4-yl]-methanone]: the 50% inhibitory concentration (IC50) was 2 nM in data set [1], 274 nM in data set [2] and 31000 nM in data set [4]. In addition, in data set [3], the concentration at 3 h is 5500 ng/g.

On to `Cc1cc(C(=O)N2CCOC[C@H]2Cc2cccc(-n3nccn3)c2)c(-n2nccn2)cc1C` [Example 35, (4,5-Dimethyl-2-[1,2,3]triazol-2-yl-phenyl)-[(R)-3-(3-[1,2,3]triazol-2-yl-benzyl)-morpholin-4-yl]-methanone], for which the half-inhibitory concentration (IC50) turned out to be 1 nM in data set [1] (setting [5]), 25 nM in data set [2] (setting [6]) and 20000 nM in data set [4]. Also, in data set [3], the concentration at 3 h worked out at 59 ng/g.

For `O=C(c1ccc(C(F)(F)F)cc1-n1nccn1)N1CCOC[C@H]1Cc1cccc(-c2ncon2)c1` [Example 87, [(R)-3-(3-[1,2,4]Oxadiazol-3-yl-benzyl)-morpholin-4-yl]-(2-[1,2,3]triazol-2-yl-4-trifluoromethyl-phenyl)-methanone], the values for the concentration for half-maximal inhibition (IC50) in data set [2] (setting [6]) and in data set [4] were 227 nM and 15000 nM, respectively. In addition, the concentration at 1 h in data set [3] was 1880 ng/g.

For `Cc1ccc(C(=O)N2CCOC[C@H]2Cc2cc(-c3ncccn3)ccc2F)c(-n2nccn2)c1` [Example 156, [(R)-3-(2-Fluoro-5-pyrimidin-2-yl-benzyl)-morpholin-4-yl]-(4-methyl-2-[1,2,3]triazol-2-yl-phenyl)-methanone], the 50% inhibitory concentration (IC50) was 571 nM in data set [2] (setting [6]) and more than 50000 nM in data set [4]. Besides, the concentration at 1 h in data set [3] was found to be 613 ng/g.

Consider `Cc1ccc(-n2nccn2)c(C(=O)N2CCOC[C@H]2Cc2cccc(-n3nccn3)c2)c1` [Example 11, (5-Methyl-2-[1,2,3]triazol-2-yl-phenyl)-[(R)-3-(3-[1,2,3]triazol-2-yl-benzyl)-morpholin-4-yl]-methanone], for which the figures for the IC50 in data set [1] and in data set [2] were 2 nM and 196 nM, respectively. The concentration at 3 h in data set [3] came out at 46 ng/g.

Regarding `COc1ccc(C(=O)N2CCOC[C@H]2Cc2cc(-n3nccn3)ccc2F)c(-n2nccn2)c1` [Example 95, [(R)-3-(2-Fluoro-5-[1,2,3]triazol-2-yl-benzyl)-morpholin-4-yl]-(4-methoxy-2-[1,2,3]triazol-2-yl-phenyl)-methanone], the values for the IC50 in data set [1] (setting [5]), in data set [2] (setting [6]) and in data set [4] were 11 nM, 1200 nM and 49000 nM, respectively.
